Experimental data as given in ChEMBL document CHEMBL1155893 (J Med Chem, 2008).

How the values were obtained:
Format in all cases: functional, organism-based
Plasmodium falciparum [1] = assay: Antimalarial activity against chloroquine,mefloquine-sensitive Plasmodium falciparum D6
Plasmodium falciparum [2] = assay: Antimalarial activity against multidrug-resistant Plasmodium falciparum TM91C235
Plasmodium falciparum [3] = assay: Antimalarial activity against chloroquine-resistant Plasmodium falciparum W2

Row | SMILES | IC50 (Plasmodium falciparum [1]) | IC90 (Plasmodium falciparum [1]) | IC50 (Plasmodium falciparum [2]) | IC90 (Plasmodium falciparum [2]) | IC50 (Plasmodium falciparum [3]) | IC90 (Plasmodium falciparum [3])
1 | Clc1ccc2c(NCCNCCC34CC5CC(CC(C5)C3)C4)ccnc2c1 | 8.59 nM | 13.7 nM | 17.8 nM | 24.4 nM | 15.7 nM | 31 nM
2 | O=C(CC12CC3CC(CC(C3)C1)C2)NCCNc1ccnc2cc(Cl)ccc12 | 78.5 nM | 157 nM | 238 nM | 383 nM | 254 nM | 397 nM
3 | Clc1ccc2c(NCCCCCNCCC34CC5CC(CC(C5)C3)C4)ccnc2c1 | 21.9 nM | 24.8 nM | 67.2 nM | 168 nM | 160 nM | 311 nM
4 | COC(=O)CC[C@@H](C)[C@H]1CC[C@H]2[C@@H]3[C@H](OC(C)=O)C[C@@H]4C[C@H](NCCNc5ccnc6cc(Cl)ccc56)CC[C@]4(C)[C@H]3C[C@H](OC(C)=O)[C@]12C | 9.47 nM | 12.3 nM | 12.8 nM | 24.4 nM | 5.74 nM | 11.2 nM
5 | CC(=O)O[C@@H]1CC[C@@]2(C)[C@@H](C1)C[C@@H](OC(C)=O)[C@@H]1[C@@H]2C[C@H](OC(C)=O)[C@]2(C)[C@@H]([C@H](C)CCCNCCNc3ccnc4cc(Cl)ccc34)CC[C@@H]12 | 16.9 nM | 34.2 nM | 27.7 nM | 77.9 nM | 11.4 nM | 32.5 nM
6 | CCN(CC)CCCC(C)Nc1ccnc2cc(Cl)ccc12 (stereo not given) [CHLOROQUINE] |  | 16.4 nM |  |  |  | 530 nM
7 | CC(=O)O[C@@H]1CC[C@@]2(C)[C@@H](C1)C[C@@H](OC(C)=O)[C@@H]1[C@@H]2C[C@H](OC(C)=O)[C@]2(C)[C@@H]([C@H](C)CCC(=O)Nc3ccnc4cc(Cl)ccc34)CC[C@@H]12 | 3020 nM | 6920 nM | 3510 nM | 6060 nM | 7190 nM | 
8 | Clc1ccc2c(NCCN(CCC34CC5CC(CC(C5)C3)C4)CCC34CC5CC(CC(C5)C3)C4)ccnc2c1 | 51.9 nM | 70 nM | 101 nM | 225 nM | 78.2 nM | 113 nM
9 | CC(=O)O[C@@H]1CC[C@@]2(C)[C@@H](C1)C[C@@H](OC(C)=O)[C@@H]1[C@@H]2C[C@H](OC(C)=O)[C@]2(C)[C@@H]([C@H](C)CCC(=O)NCCNc3ccnc4cc(Cl)ccc34)CC[C@@H]12 | 19 nM | 21.1 nM | 28.8 nM | 34.8 nM | 48.9 nM | 70.6 nM
10 | COC(=O)CC[C@@H](C)[C@H]1CC[C@H]2[C@@H]3[C@H](OC(C)=O)C[C@@H]4C[C@@H](NCCNc5ccnc6cc(Cl)ccc56)CC[C@]4(C)[C@H]3C[C@H](OC(C)=O)[C@]12C | 6.17 nM | 10.4 nM | 11 nM | 25 nM | 3.38 nM | 6.74 nM
11 | O=C(CC12CC3CC(CC(C3)C1)C2)NCCCCCNc1ccnc2cc(Cl)ccc12 | 267 nM | 347 nM | 602 nM | 777 nM | 518 nM | 660 nM
12 | Clc1ccc2c(NCCCNCC34CC5CC(CC(C5)C3)C4)ccnc2c1 | 3.83 nM | 6.41 nM | 7.39 nM | 20.2 nM | 12.1 nM | 20.1 nM
13 | Clc1ccc2c(NCCNCC34CC5CC(CC(C5)C3)C4)ccnc2c1 | 4.26 nM | 8.23 nM | 8.73 nM | 14.9 nM | 8.4 nM | 15.2 nM
14 | Clc1ccc2c(NCCCN(CCC34CC5CC(CC(C5)C3)C4)CCC34CC5CC(CC(C5)C3)C4)ccnc2c1 | 52.2 nM | 78.3 nM | 109 nM | 171 nM | 83.2 nM | 132 nM
15 | O=C(CC12CC3CC(CC(C3)C1)C2)NCCCNc1ccnc2cc(Cl)ccc12 | 106 nM | 294 nM | 201 nM | 464 nM | 337 nM | 853 nM
16 | Clc1ccc2c(NCCCCCNCC34CC5CC(CC(C5)C3)C4)ccnc2c1 | 15.2 nM | 18.9 nM | 75.3 nM | 161 nM | 131 nM | 168 nM
17 | COC(=O)CC[C@@H](C)[C@H]1CC[C@H]2[C@@H]3[C@H](OC(C)=O)C[C@@H]4C[C@H](OCCNc5ccnc6cc(Cl)ccc56)CC[C@]4(C)[C@H]3C[C@H](OC(C)=O)[C@]12C | 33 nM | 99.3 nM | 50.5 nM | 72.8 nM | 111 nM | 147 nM
18 | COC(=O)CC[C@@H](C)[C@H]1CC[C@H]2[C@@H]3[C@H](OC(C)=O)C[C@@H]4C[C@H](OCCNCCNc5ccnc6cc(Cl)ccc56)CC[C@]4(C)[C@H]3C[C@H](OC(C)=O)[C@]12C | 14.1 nM | 22.8 nM | 32.2 nM | 76 nM | 17.8 nM | 24.6 nM
19 | O=C(NCCCNc1ccnc2cc(Cl)ccc12)C12CC3CC(CC(C3)C1)C2 | 214 nM | 370 nM | 525 nM | 787 nM | 878 nM | 1360 nM
20 | O=C(NCCNc1ccnc2cc(Cl)ccc12)C12CC3CC(CC(C3)C1)C2 | 202 nM | 465 nM | 439 nM | 685 nM | 485 nM | 724 nM
21 | COC(=O)CC[C@@H](C)[C@H]1CC[C@H]2[C@@H]3[C@H](OC(C)=O)C[C@@H]4C[C@H](Nc5ccnc6cc(Cl)ccc56)CC[C@]4(C)[C@H]3C[C@H](OC(C)=O)[C@]12C | 10.7 nM | 20.7 nM | 30.1 nM | 68.6 nM | 108 nM | 563 nM
22 | CC(=O)O[C@@H]1CC[C@@]2(C)[C@@H](C1)C[C@@H](OC(C)=O)[C@@H]1[C@@H]2C[C@H](OC(C)=O)[C@]2(C)[C@@H]([C@H](C)CCCNc3ccnc4cc(Cl)ccc34)CC[C@@H]12 | 15.8 nM | 70.5 nM | 30.1 nM | 68.6 nM | 140 nM | 1180 nM
23 | CCCNC(=O)CC[C@@H](C)[C@H]1CC[C@H]2[C@@H]3[C@H](OC(C)=O)C[C@@H]4C[C@H](Nc5ccnc6cc(Cl)ccc56)CC[C@]4(C)[C@H]3C[C@H](OC(C)=O)[C@]12C | 68.2 nM | 98.2 nM | 99.5 nM | 367 nM | 209 nM | 1850 nM
24 | O=C(NCCCCCNc1ccnc2cc(Cl)ccc12)C12CC3CC(CC(C3)C1)C2 | 511 nM | 632 nM | 765 nM | 984 nM | 884 nM | 1410 nM
25 | C[C@@H]1CC[C@H]2[C@@H](C)C(=O)O[C@@H]3O[C@@]4(C)CC[C@@H]1[C@]32OO4 [ARTEMISININ] | 9 nM | 12.8 nM | 13 nM | 17.4 nM | 6.7 nM | 11.5 nM
26 | Clc1ccc2c(NCCCNCCC34CC5CC(CC(C5)C3)C4)ccnc2c1 | 11.4 nM | 23.3 nM | 42.1 nM | 171 nM | 33.7 nM | 56.1 nM
27 | O[C@@H](c1cc(C(F)(F)F)nc2c(C(F)(F)F)cccc12)[C@H]1CCCCN1 [MEFLOQUINE] | 11.2 nM | 28.1 nM |  | 106 nM |  | 14.7 nM
